Reference: patent US5525627A, “Esters of acyl carnitines with long-chain aliphatic alcohols and pharmaceutical compositions containing same having antimycotic activity” (Sigma-Tau Industrie Farmaceutiche Riunite S.p.A., priority 1992, dated 1996)
Where “and” joins values, the source holds several entries; their conditions need not be identical. Identical values can stand only once.

Tests used:
[1] = tested on: Fusarium sp. (ISS 1); assay: MIC for filamentous fungi; assay type: cell-based; details: read-out: Minimal Inhibitory Concentration (MIC)
Excerpt: (§1) The following strains were used (the number of strains is in brackets): Aspergillus (5); Fusarium (1); Mucor (1); Penicillium (1).
(§2) The tested substances were: ST 712, ST 722, ST 982, ST 983, ST 1000, ST 1001, ST 1032, ST 1033, ST 1034, ST 1036, ST 1037, ST 1038, ST 1050, ST 1051, ST 1052, ST 1053. The assay medium was the same as the one used in the previous study. The conidia from 72-hour cultures in Sabouraud agar, collected by washing with Sabouraud medium and Tween 80 (one drop of Tween per 10 ml of medium), were utilized as inoculum (5.0×10^4 CFU/ml).
(§3) The assay was performed using the same procedure as described for yeast-like fungi.
(§4) Also the evaluation of MIC and MFC was as reported previously.

[2] = tested on: Aspergillus niger (ATCC 16404); assay: MIC for filamentous fungi; assay type: cell-based; details: ATCC16404, read-out: Minimal Inhibitory Concentration (MIC)
Excerpt: as §1, §2, §3, §4

[3] = tested on: Aspergillus fumigatus (C/1); assay: MIC for filamentous fungi; assay type: cell-based; details: read-out: Minimal Inhibitory Concentration (MIC)
Excerpt: as §1, §2, §3, §4

[4] = tested on: Mucor mucedo (ATCC 7941); assay: MIC for filamentous fungi; assay type: cell-based; details: ATCC7941, read-out: Minimal Inhibitory Concentration (MIC)
Excerpt: as §1, §2, §3, §4

[5] = tested on: Aspergillus fumigatus (1/A); assay: MIC for filamentous fungi; assay type: cell-based; details: read-out: Minimal Inhibitory Concentration (MIC)
Excerpt: as §1, §2, §3, §4

[6] = tested on: Aspergillus fumigatus (ATCC 28212); assay: MIC for filamentous fungi; assay type: cell-based; details: ATCC28212, read-out: Minimal Inhibitory Concentration (MIC)
Excerpt: as §1, §2, §3, §4

[7] = tested on: Aspergillus fumigatus (2/A); assay: MIC for filamentous fungi; assay type: cell-based; details: read-out: Minimal Inhibitory Concentration (MIC)
Excerpt: as §1, §2, §3, §4

[8] = tested on: Penicillium sp. (1302); assay: MIC for filamentous fungi; assay type: cell-based; details: read-out: Minimal Inhibitory Concentration (MIC)
Excerpt: as §1, §2, §3, §4

[9] = tested on: Candida albicans (ISS 1); assay: MIC for yeast and yeast-like strains; assay type: cell-based; details: 48 hours, 35° C., read-out: Minimal Inhibitory Concentration (MIC)
Protocol: (§5) The following strains were used (the number of strains is in brackets): Candida (13); Criptococcus (2); Saccharormyces (1); Torulopsis (1).
(§6) Yeast Nitrogen Base supplemented with 0.15% asparagine and 1.0% glucose (as carbon source) was the medium utilized in the assays.
(§7) This medium was buffered with 0.165 M 2-(N-morpholino) propane sulfonic acid (MOPS), a non-chelating buffer.
(§8) Antimicrob. Agents Cheroother. Aug. 34.8:1542-1545).
(§9) The inoculum was prepared from an overnight broth culture (a 48-hour culture only for Cryptococcus) in Sabouraud broth and appropriately diluted to yield a final suspension containing approximately 5.0×10^6 Colony Forming Units per ml (CFU/ml), when compared to the Mc Farland's standard control (BRAY W. E., Clinical Laboratory Methods, 5th Ed. C. V. MOSBY, St. Louis, Mo, 1957).
(§10) After further diluting (1:50), a […] volume of such fungal suspensions and an equal volume of the substance solutions were distributed into each well of a microtiter plate (96 wells, round bottom). Such a procedure eventually allowed for an "in vitro" antimycotic activity assay utilizing final fungal inocula of approximately 5.0×10^4 CFU/ml.

[10] = tested on: Cryptococcus neoformans (ISS 1); assay: MIC for yeast and yeast-like strains; assay type: cell-based; details: 48 hours, 35° C., read-out: Minimal Inhibitory Concentration (MIC)
Protocol: as §5, §6, §7, §8, §9, §10

[11] = tested on: Candida pseudotropicalis (EC 1); assay: MIC for yeast and yeast-like strains; assay type: cell-based; details: Kluyveromyces marxianus; 48 hours, 35° C.; read-out: Minimal Inhibitory Concentration (MIC)
Protocol: as §5, §6, §7, §8, §9, §10

[12] = tested on: Candida glabrata (ISS 1); assay: MIC for yeast and yeast-like strains; assay type: cell-based; details: Nakaseomyces glabratus; 48 hours, 35° C.; read-out: Minimal Inhibitory Concentration (MIC)
Protocol: as §5, §6, §7, §8, §9, §10

[13] = tested on: Candida albicans (ATCC 2091); assay: MIC for yeast and yeast-like strains; assay type: cell-based; details: ATCC2091, 48 hours, 35° C., read-out: Minimal Inhibitory Concentration (MIC)
Protocol: as §5, §6, §7, §8, §9, §10

[14] = tested on: Candida parapsilosis (ISS 1); assay: MIC for yeast and yeast-like strains; assay type: cell-based; details: Lodderomyces parapsilosis; 48 hours, 35° C.; read-out: Minimal Inhibitory Concentration (MIC)
Protocol: as §5, §6, §7, §8, §9, §10

[15] = tested on: Candida tropicalis (ISS 1); assay: MIC for yeast and yeast-like strains; assay type: cell-based; details: 48 hours, 35° C., read-out: Minimal Inhibitory Concentration (MIC)
Protocol: as §5, §6, §7, §8, §9, §10

[16] = tested on: Candida guilliermondii (ISS 1); assay: MIC for yeast and yeast-like strains; assay type: cell-based; details: Meyerozyma guilliermondii; 48 hours, 35° C.; read-out: Minimal Inhibitory Concentration (MIC)
Protocol: as §5, §6, §7, §8, §9, §10

[17] = tested on: Candida albicans (PG); assay: MIC and MFC for yeast and yeast-like strains; assay type: cell-based; details: 48 hours, 35° C., read-out: Minimal Inhibitory Concentration (MIC)
Protocol: as §5, §6, §7, §8, §9, §10
(§11) The minimal fungicidal concentration was evaluated by spot-transferring onto Petri dishes, containing Sabouraud agar, 0.01-ml volumes of all the samples showing no visible fungal growth.

[18] = tested on: yeast-like fungi; assay: MIC / MFC for yeast-like fungi, all strains; assay type: cell-based, Candida, Cryptococcus, Saccharomyces, Torulopsis; details: versus susceptible strains; read-out: Mean MIC values
Protocol: as §5, §6
(§12) This medium was buffered with 0.165 M 2-(N-morpholino) propane sulfonic acid (MOPS), a non-chelating buffer. […]
as §9, §10, §11

[19] = tested on: Candida albicans (Ca 2); assay: MIC for yeast and yeast-like strains; assay type: cell-based; details: 48 hours, 35° C., read-out: Minimal Inhibitory Concentration (MIC)
Protocol: as §5, §6, §12, §9, §10

[20] = tested on: Candida albicans (A 54); assay: MIC for yeast and yeast-like strains; assay type: cell-based; details: 48 hours, 35° C., read-out: Minimal Inhibitory Concentration (MIC)
Protocol: as §5, §6, §12, §9, §10

[21] = tested on: Candida albicans (562); assay: MIC for yeast and yeast-like strains; assay type: cell-based; details: 48 hours, 35° C., read-out: Minimal Inhibitory Concentration (MIC)
Protocol: as §5, §6, §12, §9, §10

[22] = tested on: Candida krusei (ISS 1); assay: MIC for yeast and yeast-like strains; assay type: cell-based; details: Pichia kudriavzevii; 48 hours, 35° C.; read-out: Minimal Inhibitory Concentration (MIC)
Protocol: as §5, §6, §12, §9, §10

[23] = tested on: Torulopsis candida (D.S.); assay: MIC for yeast and yeast-like strains; assay type: cell-based; details: Suzukiozyma candida; 48 hours, 35° C.; read-out: Minimal Inhibitory Concentration (MIC)
Protocol: as §5, §6, §12, §9, §10

[24] = tested on: Cryptococcus neoformans (4711); assay: MIC for yeast and yeast-like strains; assay type: cell-based; details: 48 hours, 35° C., read-out: Minimal Inhibitory Concentration (MIC)
Protocol: as §5, §6, §12, §9, §10

[25] = tested on: Saccharomyces cerevisiae (ATCC 7752); assay: MIC for yeast and yeast-like strains; assay type: cell-based; details: ATCC7752, 48 hours, 35° C., read-out: Minimal Inhibitory Concentration (MIC)
Protocol: as §5, §6, §12, §9, §10

[26] = tested on: Candida tropicalis (5705); assay: MIC for yeast and yeast-like strains; assay type: cell-based; details: 48 hours, 35° C., read-out: Minimal Inhibitory Concentration (MIC)
Protocol: as §5, §6, §12, §9, §10

[27] = tested on: filamentous fungi; assay: MIC / MFC for filamentous fungi, all strains; assay type: cell-based, Aspergillus, Fusarium, Mucor, Penicillium; details: versus susceptible strains; read-out: Mean MIC values
Excerpt: as §1, §2, §3, §4

[28] = tested on: C. albicans ISS 1; assay: Experimental subcutaneous infection with Candida albicans in mice; assay type: in vivo, Candida albicans in mice (male CD1 outbred); details: individual samples 1-4; 50 mcg s.c. at 0, 48 and 96 hours (150 total mcg per animal)
Protocol: Male CD1 outbred mice (IFFA Credo) aged 8 weeks were used (4 animals per group).
A pathogenic strain of Candida was used, namely C. albicans ISS 1.
The infected animals were treated with ST 722 dissolved in saline, and Miconazole diluted in saline from a stock solution containing 1% Dimethyl Formamide.
From an overnight broth culture of C. albicans in Sabouraud broth, a fungal suspension was prepared in sterile saline containing 5.0×10^5 cells/mi. An inoculum of 0.5 ml of this suspension was injected subcutaneously into the abdominal wall of each animal.
The compounds were then administered by subcutaneous injection in the same area of the fungal challenge at the dose of 50 mcg (in 0.2 ml of saline) immediately after the inoculum and following 48 and 96 hours (150 total mcg per animal).
Then, 48 hours following the last treatment (6 days after the challenge with Candida), the animals were sacrificed, and the abdominal wall as well as the peritoneum were dissected out.
The excised tissues were then homogenized in 5 ml of sterile saline with a Potter-Elvehjem tissue grinder. The resulting suspensions, appropriately diluted, where plated onto Petri dishes containing a selective agar medium (BIGGY agar), which allows to easily detect the yeast Colony Forming Units (CFU/ml).
The number of colonies scored in a series of dilutions for each single sample consents to calculate the number of yeast cells present in the infected tissue sample as follows: [formula] Where Zi is the number of dilutions performed, Ni is the number of plates prepared for each dilution, and Ci is the total number of yeast cells scored in each dilution.

CCCCCCCCCCCCOC(=O)C[C@H](C[N+](C)(C)C)OC(=O)C(C)C [ST 1038]
MIC [1]: 6.25 µg/mL
MIC [2]: 12.5 µg/mL
MIC [3]: 6.25 µg/mL
MIC [4]: 25 µg/mL
MIC [5]: 12.5 µg/mL
MIC [6]: 12.5 µg/mL
MIC [7]: 12.5 µg/mL
MIC [8]: 12.5 µg/mL
MIC [9]: 6.25 µg/mL
MIC [10]: 3.12 µg/mL
MIC [11]: 6.25 µg/mL
MIC [12]: 6.25 µg/mL
MIC [13]: 3.12 µg/mL
MIC [14]: 6.25 µg/mL
MIC [15]: 3.12 µg/mL
MIC [16]: 6.25 µg/mL
MIC [17]: 6.25 µg/mL
MIC [18]: 4.4 µg/mL
MIC [19]: 1.56 µg/mL
MIC [20]: 3.12 µg/mL
MIC [21]: 3.12 µg/mL
MIC [22]: 3.12 µg/mL
MIC [23]: 6.25 µg/mL
MIC [24]: 1.56 µg/mL
MIC [25]: 6.25 µg/mL
MIC [26]: 3.12 µg/mL
MIC [27]: 12.5 µg/mL

CCCCCCCCCCCOC(=O)C[C@H](C[N+](C)(C)C)OC(=O)CCC(C)C [ST 1034]
MIC [1]: 3.12 µg/mL
MIC [2]: 6.25 µg/mL
MIC [3]: 6.25 µg/mL
MIC [4]: 12.5 µg/mL
MIC [5]: 6.25 µg/mL
MIC [6]: 6.25 µg/mL
MIC [7]: 3.12 µg/mL
MIC [8]: 3.12 µg/mL
MIC [9]: 1.56 µg/mL
MIC [10]: 3.12 µg/mL
MIC [11]: 6.25 µg/mL
MIC [12]: 3.12 µg/mL
MIC [13]: 1.56 µg/mL
MIC [14]: 6.25 µg/mL
MIC [15]: 3.12 µg/mL
MIC [16]: 6.25 µg/mL
MIC [17]: 3.12 µg/mL
MIC [18]: 3.03 µg/mL
MIC [19]: 1.56 µg/mL
MIC [20]: 1.56 µg/mL
MIC [21]: 1.56 µg/mL
MIC [22]: 1.56 µg/mL
MIC [23]: 3.12 µg/mL
MIC [24]: 1.56 µg/mL
MIC [25]: 3.12 µg/mL
MIC [26]: 3.12 µg/mL
MIC [27]: 5.85 µg/mL

Clc1ccc(COC(Cn2ccnc2)c2ccc(Cl)cc2Cl)c(Cl)c1 (stereo not shown) [Miconazole, reference compound]
CFU/mouse [28]: sterile and 3.60 × 10^1 CFU/mouse and 8.10 × 10^1 CFU/mouse
